US20230265151A1, “GIP/GLP1 CO-AGONIST COMPOUNDS” (priority 2020, published 2023)
Read-outs that look alike come from different tables or passages of the source.

Legend:
hGCGR = biological target: T1, hGCGR (Homo sapiens, UniProt P47871); test: Functional cAMP formation (HTRF) in HEK-293 clonal cells expressing hGCGR, 0.1% bovine casein, without or with 1.0% human serum albumin; assay type: cell-based
T1 construct: expressed in transfected cells
Outline: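 Readings of the HTRF 665/620 nm ratio, which falls as cAMP rises, were converted to nM cAMP using a standard curve after 30 min peptide exposure at 37° C.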

[1] = biological target: T2, human GLP-1 receptor (hGLP-1R) (Homo sapiens, UniProt P43220); test: [125I]-GLP-1 binding, SPA with membranes of HEK293 cells expressing hGLP-1R
T2 construct: expressed in transfected cells; crude membranes

[2] = biological target: T3, human Gcg receptor (hGcgR) (Homo sapiens, UniProt P47871); test: [125I]-Glucagon binding, SPA with membranes of HEK293 cells expressing hGcgR
T3 construct: expressed in transfected cells; crude membranes

[3] = biological target: T4, human GIP receptor (hGIPR) (Homo sapiens, UniProt P48546); test: [125I]-GIP binding, SPA with membranes of CHO cells expressing hGIPR
T4 construct: expressed in transfected cells; crude membranes
T4 sequence (P48546 22-466): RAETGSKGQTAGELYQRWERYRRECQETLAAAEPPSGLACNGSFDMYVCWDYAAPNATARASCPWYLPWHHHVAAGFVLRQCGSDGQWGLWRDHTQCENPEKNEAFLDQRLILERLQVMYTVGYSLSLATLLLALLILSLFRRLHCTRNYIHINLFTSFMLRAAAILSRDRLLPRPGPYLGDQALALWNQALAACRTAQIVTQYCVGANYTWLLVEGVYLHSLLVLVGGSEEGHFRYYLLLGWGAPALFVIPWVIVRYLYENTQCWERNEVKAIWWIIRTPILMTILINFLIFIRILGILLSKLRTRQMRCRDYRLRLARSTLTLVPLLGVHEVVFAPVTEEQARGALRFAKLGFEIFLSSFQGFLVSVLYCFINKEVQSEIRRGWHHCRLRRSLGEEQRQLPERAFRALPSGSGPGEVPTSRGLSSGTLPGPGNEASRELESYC

[4] = 0.1% bovine casein and 1.0% human serum albumin, 37° C., geometric mean, read-out: hGCGR EC50, nM (SEM, n)
[5] = cAMP, incubated at 37° C., 0.1% bovine casein (no human serum albumin), geometric mean, read-out: hGCGR EC50, nM (SEM, n)
[6] = human GLP-1R, geometric mean (SEM, n), read-out: Binding Affinity Ki, nM (SEM, n) hGLP-1R
[7] = human GcgR, geometric mean (SEM, n), read-out: Binding Affinity Ki, nM (SEM, n) hGCGR
[8] = human GIPR, geometric mean (SEM, n), read-out: Binding Affinity Ki, nM (SEM, n) hGIPR

T2 sequence (P43220 24-463): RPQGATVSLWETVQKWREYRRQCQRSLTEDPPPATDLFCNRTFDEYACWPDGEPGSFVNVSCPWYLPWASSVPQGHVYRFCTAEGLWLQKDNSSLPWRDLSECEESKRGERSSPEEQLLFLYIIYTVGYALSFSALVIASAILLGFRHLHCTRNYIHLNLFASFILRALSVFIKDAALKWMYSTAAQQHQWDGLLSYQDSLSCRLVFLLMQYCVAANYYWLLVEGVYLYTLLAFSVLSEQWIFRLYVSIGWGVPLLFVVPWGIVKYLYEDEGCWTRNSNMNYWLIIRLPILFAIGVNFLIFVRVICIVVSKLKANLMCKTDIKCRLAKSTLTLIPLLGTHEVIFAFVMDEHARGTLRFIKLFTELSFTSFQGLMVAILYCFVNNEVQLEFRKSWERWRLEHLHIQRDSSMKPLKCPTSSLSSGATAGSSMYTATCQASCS
T3 sequence (P47871 26-477): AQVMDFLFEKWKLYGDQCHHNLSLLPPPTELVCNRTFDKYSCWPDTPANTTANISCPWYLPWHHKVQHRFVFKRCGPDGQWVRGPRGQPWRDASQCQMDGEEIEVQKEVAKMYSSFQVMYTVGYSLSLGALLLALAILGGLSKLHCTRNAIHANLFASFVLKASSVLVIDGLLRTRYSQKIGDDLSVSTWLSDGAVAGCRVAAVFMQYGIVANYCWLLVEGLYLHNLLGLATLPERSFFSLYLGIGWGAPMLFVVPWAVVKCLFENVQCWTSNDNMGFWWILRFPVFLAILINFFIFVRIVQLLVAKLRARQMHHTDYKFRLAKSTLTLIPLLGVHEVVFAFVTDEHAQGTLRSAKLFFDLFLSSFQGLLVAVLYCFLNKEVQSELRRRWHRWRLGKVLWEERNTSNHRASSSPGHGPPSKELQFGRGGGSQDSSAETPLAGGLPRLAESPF
T1 sequence (P47871 26-477): as above

| SMILES | EC50 (hGCGR; [4]) [nM] | EC50 (hGCGR; [5]) [nM] | Ki [1, 6] [nM] | Ki [2, 7] [nM] | Ki [3, 8] [nM] | EC50 (hGCGR; hGCGR EC50, nM (SEM, n), cAMP, 37° C., 0.1% bovine casein (no human serum albumin), geometric mean) [nM] | EC50 (hGCGR; hGCGR EC50, nM (SEM, n), cAMP, 37° C., 0.1% bovine casein and 1.0% human serum albumin, geometric mean (SEM, n)) [nM] | Ki [1] [nM] | Ki [2] [nM] | Ki [3] [nM] |
| --- | --- | --- | --- | --- | --- | --- | --- | --- | --- | --- |
| CC[C@H](C)[C@H](NC(=O)[C@H](CC(C)C)NC(=O)[C@](C)(Cc1ccc(O)cc1)NC(=O)[C@@H](CCC(=O)O)NC(=O)[C@@H](NC(=O)[C@H](Cc1ccccc1)NC(=O)[C@H](CCC(=O)O)NC(=O)C(C)(C)NC(=O)[C@H](CCC(N)=O)NC(=O)[C@H](C)NC(=O)[C@H](CCCCNC(=O)COCCOCCNC(=O)COCCOCCNC(=O)CC[C@H](NC(=O)CCCCCCCCCCCCC(=O)O)C(=O)O)NC(=O)[C@H](CCCN)NC(=O)[C@H](CC(=O)O)NC(=O)[C@H](CC(C)C)NC(=O)[C@](C)(CC(C)C)NC(=O)[C@@H](NC(=O)C(C)(C)NC(=O)[C@@H](NC(=O)[C@H](CC(=O)O)NC(=O)[C@H](CO)NC(=O)[C@@H](NC(=O)[C@](C)(Cc1ccccc1F)NC(=O)[C@@H](NC(=O)CNC(=O)[C@H](CCC(=O)O)NC(=O)C(C)(C)NC(=O)[C@@H](N)Cc1ccc(O)cc1)[C@@H](C)O)[C@@H](C)O)C(C)C)[C@@H](C)CC)[C@@H](C)CC)C(=O)N[C@@H](CCC(=O)O)C(=O)NCC(=O)NCC(=O)N[C@@H](CCCCNC(=O)COCCOCCNC(=O)COCCOCCNC(=O)CC[C@H](NC(=O)CCCCCCCCCCCCC(=O)O)C(=O)O)C(=O)N[C@@H](CO)C(=O)N[C@@H](CO)C(=O)NCC(=O)N[C@@H](C)C(=O)N1CCC[C@H]1C(=O)N1CCC[C@H]1C(=O)N1CCC[C@H]1C(=O)N[C@@H](CO)C(N)=O [Example 91] | > 9950 | > 9950 | 1.26 | > 955 | 0.126 | – | – | – | – | – |
| CC[C@H](C)[C@H](NC(=O)[C@H](CC(C)C)NC(=O)[C@](C)(Cc1ccc(O)cc1)NC(=O)[C@@H](CCC(=O)O)NC(=O)[C@@H](NC(=O)[C@H](Cc1ccccc1)NC(=O)[C@H](CCC(=O)O)NC(=O)C(C)(C)NC(=O)[C@H](CCC(N)=O)NC(=O)[C@H](C)NC(=O)[C@H](CCCCNC(=O)COCCOCCNC(=O)COCCOCCNC(=O)CC[C@H](NC(=O)CCCCCCCCCCCCC(=O)O)C(=O)O)NC(=O)[C@H](CCCN)NC(=O)[C@H](CC(=O)O)NC(=O)[C@H](CC(C)C)NC(=O)[C@](C)(CC(C)C)NC(=O)[C@@H](NC(=O)[C@](C)(CO)NC(=O)[C@@H](NC(=O)[C@H](CC(=O)O)NC(=O)[C@H](CO)NC(=O)[C@@H](NC(=O)[C@](C)(Cc1ccccc1F)NC(=O)[C@@H](NC(=O)CNC(=O)[C@H](CCC(=O)O)NC(=O)C(C)(C)NC(=O)[C@@H](N)Cc1ccc(O)cc1)[C@@H](C)O)[C@@H](C)O)C(C)C)[C@@H](C)CC)[C@@H](C)CC)C(=O)N[C@@H](CCC(=O)O)C(=O)NCC(=O)NCC(=O)N[C@@H](CCCCNC(=O)COCCOCCNC(=O)COCCOCCNC(=O)CC[C@H](NC(=O)CCCCCCCCCCCCC(=O)O)C(=O)O)C(=O)N[C@@H](CO)C(=O)N[C@@H](CO)C(=O)NCC(=O)N[C@@H](C)C(=O)N1CCC[C@H]1C(=O)N1CCC[C@H]1C(=O)N1CCC[C@H]1C(=O)N[C@@H](CO)C(N)=O [Example 212] | > 9950 | > 9950 | 1.17 | > 955 | 0.161 | – | – | – | – | – |
| CC[C@H](C)[C@H](NC(=O)[C@H](CC(C)C)NC(=O)[C@](C)(Cc1ccc(O)cc1)NC(=O)[C@H](CCCCNC(=O)CC[C@H](NC(=O)COCCOCCNC(=O)COCCOCCNC(=O)CC[C@H](NC(=O)CCCCCCCCCOc1ccc(C(=O)O)cc1)C(=O)O)C(=O)O)NC(=O)[C@@H](NC(=O)[C@H](Cc1ccccc1)NC(=O)[C@H](CCCN)NC(=O)C(C)(C)NC(=O)[C@H](CCC(N)=O)NC(=O)[C@H](C)NC(=O)[C@H](CCC(N)=O)NC(=O)[C@H](CCCN)NC(=O)[C@H](CC(=O)O)NC(=O)[C@H](CC(C)C)NC(=O)[C@](C)(CC(C)C)NC(=O)[C@@H](NC(=O)C(C)(C)NC(=O)[C@H](Cc1ccncc1)NC(=O)[C@H](CC(=O)O)NC(=O)[C@H](CO)NC(=O)[C@@H](NC(=O)[C@](C)(Cc1ccccc1F)NC(=O)[C@@H](NC(=O)CNC(=O)[C@H](CCC(=O)O)NC(=O)C(C)(C)NC(=O)[C@@H](N)Cc1ccc(O)cc1)[C@@H](C)O)[C@@H](C)O)[C@@H](C)CC)[C@@H](C)CC)C(=O)N[C@@H](CCCCNC(=O)CC[C@H](NC(=O)COCCOCCNC(=O)COCCOCCNC(=O)CC[C@H](NC(=O)CCCCCCCCCOc1ccc(C(=O)O)cc1)C(=O)O)C(=O)O)C(=O)NCC(=O)NCC(=O)N1CCC[C@H]1C(=O)N[C@@H](CO)C(=O)N[C@@H](CO)C(=O)NCC(=O)N[C@@H](C)C(=O)N1CCC[C@H]1C(=O)N1CCC[C@H]1C(=O)N1CCC[C@H]1C(=O)N[C@@H](CO)C(N)=O [Example 483] | – | – | – | – | – | > 9950 | > 9950 | 0.263 | 151 | 0.0236 |
